PubChem BioAssay AID1259418 (Broad Institute, 2018)
Values joined by “and” are separate entries in the source; they are usually repeats but may differ in a detail not shown here. Equal values may be shown once. Results filed as inconclusive are left out. Active and inactive are the calls of the source.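 The calls were made as follows: active = fitted half-maximal concentration of signal decrease at or below twice the sample's top tested concentration; inconclusive = flat curve between -70 and -30 percent, or poor fit; inactive = flat within 30 percent, signal rise, or potency above limit.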 Starred links: 1 amine or outer side, 2 acyl side, 3 side chain; linkers in the order of their positions; H or OH if unused. Positions of bridges follow the written chain, without caps; N, C: chain ends. Non-standard residues stand in square brackets, D forms with d. Residues, ends and D or L forms follow the SMILES beside them. ξ: configuration not given here. *: point of attachment. pTerphenylCO(4''-OnC5H11) = CCCCCOc1ccc(-c2ccc(-c3ccc(C(=O)*)cc3)cc2)cc1; ξOrn(4,5-diOH) = O=C(C(CC(O)C(O)N[*:3])N[*:1])[*:2]; ξhTyr(βξ-OH,γξ-OH) = NC(C(=O)O)C(O)C(O)c1ccc(O)cc1; ξPro(3ξ-OH,4ξ-Me) = CC1CNC(C(=O)O)C1O; Hyp = O=C(O)[CH]1C[CH](O)CN1

Biological target: T. gondii ME49Luc in IFN-y HeLa, luciferase, 72 h
Assay: inhibitors of Toxoplasma growth in IFN-γ-primed HeLa – cell-based, ME49Luc, luciferase, 72 h, dose response (AID 1259418)

Row | Structure (SMILES) | AC50
1 | COc1cccc(-c2ccc3c(c2)[C@H]2[C@H](CCN2S(=O)(=O)c2ccccc2F)[C@H](CO)N3)c1 | 19.3 µM
2 | N#Cc1cccc(-c2ccc3c(c2)[C@@H]2[C@@H](CCN2S(=O)(=O)c2ccc(F)cc2)[C@@H](CO)N3)c1 | 15.7 µM
3 | O=C(CCC1N=C2c3ccccc3N=C(SCc3ccccc3F)N2C1=O)NCc1cccs1 (stereo not given) | 22.4 µM
4 | COc1ccccc1CN1CC[C@@H]2[C@H]1c1cc(-c3cccc(C(=O)N(C)C)c3)ccc1N[C@@H]2CO | 19.6 µM
5 | CN(C)CC(=O)N1[C@H](C#N)[C@H](c2ccc(C#CC3CCCCC3)cc2)[C@@H]1CO | 14.8 µM
6 | COc1ccccc1-c1nc(CN(c2ccc(C)cc2)S(=O)(=O)c2cccs2)c(C)o1 | 30.4 µM
7 | CC(C)CC#Cc1ccc([C@@H]2[C@H](CO)N3C(=O)CN(C(=O)c4cccc(F)c4)C[C@@H]23)cc1 | 18.2 µM
8 | Cc1cc(C)c(S(=O)(=O)N2CCC3(CC2)NCCN=C3NC2CCCCC2)cc1C | 6.34 µM
9 | COCC(=O)N1[C@@H](C#N)[C@H](c2ccc(C#CCC3CCCC3)cc2)[C@@H]1CO | 38.3 µM
10 | O=C(O)CCc1nc2sc3c(c2c(=O)[nH]1)CCCC3 | > 20 µM (inactive)
11 | COc1ccccc1-c1ccc([C@H]2[C@H](CO)N[C@@H]2C#N)cc1 | 24 µM
12 | CC(C)CNc1nc2c(cc1C(=O)NCC1CC1)CCN(c1ccncn1)CC2 | 19 µM
13 | CCOc1ccc(-c2nc(CN3CCN(C(=O)Nc4ccc(F)cc4)CC3)c(C)o2)cc1 | 12.8 µM
14 | CC(C)NC(=O)N1CC(=O)N2[C@H](C1)[C@@H](c1ccc(/C=C/c3ccccc3)cc1)[C@@H]2CO | 10.4 µM
15 | CN1c2ccc(-c3ccccc3)cc2[C@H]2[C@H](CCN2C(=O)CC2CC2)[C@@H]1CO | 18.8 µM
16 | Cc1cc(C2CCCN2Cc2cn(C(C)C)c3ccccc23)no1 (stereo not given) | 35.1 µM
17 | O=C(Nc1cccc(F)c1)N1CCCCN2[C@@H](CO)[C@H](c3ccc(C#Cc4cccnc4)cc3)[C@@H]2C1 | 4.48 µM
18 | CC(=O)O.CC(=O)O.[Cl][Pt+2][Cl].[NH-]C1CCCCC1.[NH2-] | 25.4 µM
19 | Cc1cc(C2CCCN2C(=O)Cn2nc(C(F)(F)F)c3c2CCCC3)no1 (stereo not given) | 34.3 µM
20 | CCc1ccccc1-c1cccc(-n2cnnc2)c1 | 19.9 µM
21 | CCc1ccc(S(=O)(=O)N2CCC3(CC2)NCCN=C3NCc2ccc(Cl)cc2)cc1 | 7.78 µM
22 | CC(C)C#Cc1ccc([C@H]2[C@@H](C#N)N(C(=O)c3cccc(F)c3)[C@H]2CO)cc1 | > 39 µM (inactive)
23 | Cc1ccc2c(c1)c1ncn(Cc3nc(C(C)C)no3)c(=O)c1n2CC(=O)N1CCCC1 | 14.5 µM

Row | Structure (SMILES) | AC50
24 | COc1ccc(C#Cc2ccc([C@@H]3[C@@H](CO)N4C(=O)CN(C(=O)NC(C)C)C[C@@H]34)cc2)cc1 | 20.4 µM
25 | CCOc1ccccc1N(Cc1nc(-c2ccccc2)oc1C)S(=O)(=O)c1ccccc1 | 7.75 µM
26 | COc1cc([C@@H]2c3cc4c(cc3C(OC3OC5COC(C)OC5C(O)C3O)C3OCC(=O)[C@@H]32)OCO4)cc(OC)c1O (stereo not given in full) | 8.96 µM
27 | Fc1ccc(CSc2nc(NCc3ccc(Cl)cc3)c3ccccc3n2)cc1 | 16 µM
28 | COc1ccc(S(=O)(=O)N2CSC[C@@H]2C(=O)NCCc2csc(-c3ccccc3)n2)cc1 | 17.6 µM
29 | CCc1nc(OCC(=O)Nc2ccc(C)c(F)c2)c2ccccc2n1 | 26.6 µM
30 | Cn1nc2c(c1C(=O)Nc1ccc(N3CCCCC3)c(F)c1)CCCC2 | 15.9 µM
31 | CC(C)(C)c1ccc(CSC2=Nc3ccccc3C3=NC(CC(=O)NCc4ccco4)C(=O)N23)cc1 (stereo not given) | 27.4 µM
32 | COc1ccc(Cc2cnc(N)nc2N)cc1OC | 23.2 µM
33 | Cc1ccccc1CN1C[C@@H]2C[C@H](C(=O)Nc3ccccc3)[C@@H](C1)O2 | 10.5 µM
34 | Cc1ccc(C(=O)Nc2c(C(=O)NCc3ccccn3)[nH]c3ccc(C)cc23)cc1 | 25.3 µM
35 | CC(C)N1c2ccc(F)cc2[C@@H]2CN(C(=O)c3ccco3)CC[C@H]21 | 12.8 µM
36 | OC(c1cc(C(F)(F)F)nc2c(C(F)(F)F)cccc12)C1CCCCN1 (stereo not given) | 6.5 µM
37 | CC(C)Cc1ccc(S(=O)(=O)N2CCC3(CC2)NCCN=C3NC2CCCC2)cc1 | 12.5 µM
38 | O=C(c1cnccn1)N1CC(=O)N2[C@H](CO)[C@@H](c3ccc(/C=C/c4ccccc4)cc3)[C@@H]2C1 | 21.7 µM and 13.2 µM
39 | Cc1ccc(S(=O)(=O)N2CCC3(CC2)NCCN=C3NC2CCCCCC2)cc1C | 18.6 µM
40 | CCCCCOc1ccc(-c2ccc(-c3ccc(C(=O)NC4CC(O)C(O)NC(=O)C5C(O)C(C)CN5C(=O)C(C(C)O)NC(=O)C(C(O)C(O)c5ccc(O)cc5)NC(=O)C5CC(O)CN5C(=O)C(C(C)O)NC4=O)cc3)cc2)cc1 (stereo not drawn) ({pTerphenylCO(4''-OnC5H11)}-[ξOrn(4,5-diOH)]T[Hyp][ξhTyr(βξ-OH,γξ-OH)]T[ξPro(3ξ-OH,4ξ-Me)]; lactam 1-C; configuration not given here) | 25 µM
41 | COc1ccccc1-c1nc(C)c(-c2ccc(SCc3c(F)cccc3Cl)nn2)s1 | 38.4 µM
42 | O=C(C[C@H]1CC[C@H]2[C@@H](COC[C@H](O)CN2S(=O)(=O)c2ccccc2)O1)NCC1CCCCC1 | 20.8 µM
43 | COc1ccc(-c2nc(NCC3CCN(Cc4ccc(C)cc4)CC3)c3ccccc3n2)cc1 | 8.66 µM
44 | Cc1ccc(NC(=O)c2cc(-c3cnc(-c4ccccc4)nc3)cn2CC2CC2)cn1 | 10.9 µM
45 | CC(C)n1ncc(NC(=O)Cn2ccc(-c3ccc(C(F)(F)F)cc3)n2)n1 | 24.3 µM
